Test results taken from patent publication US20230382900A1, “INHIBITORS OF BTK” (Newave Pharmaceutical Inc., priority 2020, published 2023).
Read-outs that look alike come from different tables or passages of the source.

Experiments:
[1] = dogs, even at higher doses; cited from earlier work
[2] = rats, treatment for longer than 7 days; cited from earlier work
[3] = formulations containing GDC-0853; cited from earlier work
[4] = mice, even at higher doses; cited from earlier work
[5] = target: human recombinant WT BTK (Homo sapiens, UniProt Q06187); assay: Caliper-based biochemical enzymatic assay (IC50) against WT BTK; conditions: WT BTK 0.5 nM, ATP 16 μM, peptide substrate 1 μM, room temperature 3 h
human recombinant WT BTK, sequence (Q06187 whole entry): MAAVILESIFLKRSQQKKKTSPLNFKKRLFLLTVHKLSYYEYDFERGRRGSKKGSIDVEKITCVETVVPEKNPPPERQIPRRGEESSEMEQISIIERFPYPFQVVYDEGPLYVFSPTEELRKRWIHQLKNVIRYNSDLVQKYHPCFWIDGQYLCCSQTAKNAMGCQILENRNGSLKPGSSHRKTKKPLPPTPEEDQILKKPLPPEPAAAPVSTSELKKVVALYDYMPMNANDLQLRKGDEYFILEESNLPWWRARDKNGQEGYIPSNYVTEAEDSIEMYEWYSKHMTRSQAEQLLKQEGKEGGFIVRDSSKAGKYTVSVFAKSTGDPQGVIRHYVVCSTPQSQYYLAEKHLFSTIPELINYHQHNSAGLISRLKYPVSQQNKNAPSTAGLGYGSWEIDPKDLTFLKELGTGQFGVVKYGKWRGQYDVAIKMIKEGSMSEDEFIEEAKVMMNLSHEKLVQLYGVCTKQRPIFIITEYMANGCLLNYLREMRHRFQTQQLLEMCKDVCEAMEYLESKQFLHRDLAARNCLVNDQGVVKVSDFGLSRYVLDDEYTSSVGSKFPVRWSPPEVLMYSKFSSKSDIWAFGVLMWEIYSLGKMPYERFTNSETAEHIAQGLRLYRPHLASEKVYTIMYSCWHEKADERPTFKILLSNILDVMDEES
Experimental: The reaction was then terminated with EDTA, final concentration 20 mM and the phosphorylated reaction product was quantified on a Caliper Desktop Profiler (Caliper LabChip 3000). Percent inhibition was calculated for each compound dilution and the concentration that produced 50% inhibition was calculated.

IC50 [5] | Structure (SMILES) | pancreatic toxicity [1] | pancreatic toxicity [2] | tolerability in Phase I clinical trials [3] | pancreatic toxicity [4]
 | C[C@H]1CN(C2COC2)CCN1c1ccc(Nc2cc(-c3ccnc(N4CCn5c(cc6c5CC(C)(C)C6)C4=O)c3CO)cn(C)c2=O)nc1 [GDC-0853] | does not occur | leads to pancreatic toxicity | well-tolerated | does not occur
0.64 nM | C=CC(=O)Nc1cc(Nc2nc(-c3ccnc(NC(=O)c4ccc(C(C)(C)C)cc4)c3CO)cn(C)c2=O)ccc1N1CCN(C2CCOCC2)C[C@@H]1C [Example 1, 4-tert-butyl-N-[3-(hydroxymethyl)-4-[4-methyl-6-([4-[(2S)-2-methyl-4-(oxan-4-yl)piperazin-1-yl]-3-(prop-2-enamido)phenyl]amino)-5-oxopyrazin-2-yl]pyridin-2-yl]benzamide] |  |  |  | 
